Key:
Rotavirus = test: microbe, parasite or virus in culture; assay type: cell-based; settings: MA104, 0.25 h, pretreatment 15 minutes, read-out: % decrease in pfu
[1] = Cytotoxicity in solutions containing serum, HeLa; assay type: cell-based, human; set-up: key to HeLa (Cytotoxic effect): 0: Cells have normal morphology; 4+: >90% of cells showed CTE.; ±c: less than 10% of cells showed CTE; settings: human, hela cells, 2% fetal calf serum, 37° C., read-out: HeLa (Cytotoxic effect)
Method: (§1) The cells were grown to confluency in 60×15 mm dishes. The cell monolayers were washed free of growth medium and 5 ml of serum-less growth medium containing docusate sodium at various concentrations was added. The curtures were incubated 24 hours at 37° C. and the cells then examined microscopically for cytotoxic effects (CTE). Controls were done in the same manner except that they were not exposed to docusate sodium.
(§2) The same procedure that was used for Example 17 was used for this Example except that the medium used for growing the cells contained 2% by volume fetal calf serum.

HeLa = test: Cytotoxicity in solutions containing serum, HeLa; assay type: cell-based, human; set-up: key to HeLa (Cytotoxic effect): 0: Cells have normal morphology; 4+: >90% of cells showed CTE.; ±c: less than 10% of cells showed CTE; settings: 0.02 mg/ml, 2% fetal calf serum, 24 hours, 37° C.
Method: as §1, §2

[2] = Cytotoxicity in solutions free of serum, foreskin fibroblasts; assay type: cell-based, human; settings: human, foreskin fibroblasts, 0.2 mg/ml, 37° C., read-out: Foreskin (toxicity)
Method: The cell lines used to evaluate cytotoxicity of docusate sodium were MA-104 derived from monkey kidneys, HeLa derived from human uterine carcinoma and primary fibroblasts from human foreskin. The cells were grown to confluency in 60×15 mm dishes. The cell monolayers were washed free of growth medium and 5 ml of serum-less growth medium containing docusate sodium at various concentrations was added. The curtures were incubated 24 hours at 37° C. and the cells then examined microscopically for cytotoxic effects (CTE). Controls were done in the same manner except that they were not exposed to docusate sodium.

HSV-2 [3] = test: Treatment of MA-104 cells infected with HSV-2; assay type: cell-based, Herpes Simplex Type 2; settings: 0.02 mg/ml for one hour at 37° C., 6 and 24 hours after infection
Method: MA-104 cells were washed free of growth medium and exposed to appropriately diluted HSV-2 for one hour at 37° C. At 6 and 24 hours after infection, the MA-104 cells were exposed to a solution containing 0.02 mg of docusate sodium per ml of solution for one hour at 37° C. The docusate sodium solution was poured off, agar overlay added, and the exposed cells incubated for 3 days at 37° C. to provide for plaque development.

Adenovirus = test: Titration of Adenovirus after contact with docusate sodium solutions (HeLa cells); assay type: cell-based; settings: 0.2 mg/ml
HSV-2 [4] = test: Pretreatment of MA-104 cells prior to exposure to HSV-2; assay type: cell-based, Herpes Simplex Type 2; settings: 0.02 mg/ml
Method: In this Example the effect that initially contacting (pretreating) MA-104 cells with docusate sodium has on subsequent exposure of such pretreated cells to HSV-2 virus was studied.
MA-104 cells were washed free of growth medium and the cells were exposed to 0.02 mg/ml docusate sodium in serum-less growth medium for one hour. The docusate sodium solution was poured off, the cells washed twice, and then exposed to appropriately diluted HSV-2. A control solution prepared as above except for exposure to docusate sodium was also provided. After one hour at 37° C., the cells were overlayed with agar and incubated for 3 days at 37° C. to allow plaques to develop.

herpes virus = test: Recovery of herpes virus from a contaminated surface (glass slides; plaques on MA-104 cells); assay type: cell-based
Rotavirus strain SA-11 = test: Titration of Rotavirus strain SA-11 after contact with docusate sodium solutions; assay type: cell-based; settings: for plaque forming units: 0.2 mg/ml; for pfu/ml: 1 mg/ml

Q: Which results are given for `CCCCC(CC)COC(=O)CC(C(=O)OCC(CC)CCCC)S(=O)(=O)O` (stereo not drawn) [docusate sodium, 1,4-bis(2-ethylhexyl)sodium sulfosuccinate]?
A: inhibition at 40 µg/mL (Rotavirus; 0.04 mg/ml): 10%; inhibition at 50 µg/mL (Rotavirus; 0.05 mg/ml): 70%; cytotoxicity at 24 h ([1]; 0.03 mg/ml): < 10%; cytotoxicity at 24 h ([1]; 0.04 mg/ml): > 90%; HeLa (Cytotoxic effect) (HeLa): 0; cytotoxicity at 24 h [2]: > 90%; inactivation of HSV-2 in cells infected prior to contact (conclusion) (HSV-2 [3]): not effective in inactivating HSV-2 virus in cells infected with HSV-2; effect on Adenovirus replication (conclusion) (Adenovirus; contact time 60 minutes): did not have a significant effect on Adenovirus replication; pfu/ml (Adenovirus; exposure time 60 minutes (control 180,000)): 150,000 pfu/ml; killing at 200 µg/mL (Adenovirus; unidentified adenovirus, HeLa, 1 h, exposure time 60 minutes, read-out: % Inactivation): 17%; plaque formation (conclusion) (HSV-2 [4]; pretreatment): substantial drop in plaque formation; plaque forming units/ml (pfu/ml) (HSV-2 [4]; pretreatment one hour, serum-less (control 548)): 26 pfu/ml; inhibition at 20 µg/mL (HSV-2 [4]; Human alphaherpesvirus 2, MA104, 1 h, pretreatment one hour, serum-less, read-out: % decrease in pfu): 95%; plaque forming units (herpes virus; 0.4% in phosphate buffered saline (control 41,250; control smear 13,500)): 0 plaque forming units; recovery of viruses (conclusion) (herpes virus; smears scrubbed off with 0.4% solution): no viruses were recovered; plaque forming units (Rotavirus strain SA-11; exposure time 0 minutes (control 17,000)): 16,000 pfu/ml; plaque forming units (Rotavirus strain SA-11; exposure time 15 minutes): 19,000 pfu/ml; plaque forming units (Rotavirus strain SA-11; exposure time 60 minutes (control 13,000)): 27,000 pfu/ml; pfu/ml (Rotavirus strain SA-11; exposure time 0 minutes (control 46,500)): 45,000 pfu/ml; pfu/ml (Rotavirus strain SA-11; exposure time 60 minutes (control 49,000)): 51,000 pfu/ml; inactivation of Rotavirus SA-11 (conclusion) (Rotavirus strain SA-11; 0.2 and 1 mg/ml): did not inactivate Rotavirus SA-11
